Results on 11 compounds are retold here after patent US4778792A, “Use of 7-acyl benzoxazinones and their derivatives in treating atheromatous disorders” (Laboratories Negma, priority 1985, dated 1988).

Where a name gives a salt, the structure may show the parent alone. Read-outs that look alike come from different tables or passages of the source.

The data set can be described thus: Normolipemic activity, lipid balance in normal or hypercholesterolemic mice. Format: in vivo. The note with it: per os, 50 mg/kg daily for 15 days, with respect to a control group; for change in vivo at 50 mg/kg: Mus musculus, po, 360 h. The protocol:
Activity of selected molecules by the Triton test in mice rendered hypercholesterolemic and normal mice: study of the lipid parameters, of the lipoprotein and apoprotein composition.
Preliminary study on the weight of the liver and histological examination of the hepatic tissue.
3.2 The normolipemic activity has also been established in OF normal mice or rendered hypercholesterolemic. The products tested were administered per os daily for 15 days at the dose of 50 mg/kg.
All the compounds were administered orally at the rate of 50 mg/kg.

[1] abbreviates: read-out: CT (Total cholesterol) %.
Where [2] appears, read: read-out: HDLC (Cholesterol fraction contained in the HDLs) %.
Setting [3] is: read-out: HDLC/TC (ratio between the cholesterol contained in the HDLs and the total cholesterol) %.

Turning to `CCCC(=O)c1ccc2c(c1)OC(C)(C)C(=O)N2` [MZ 95, 7-Butyryl 2,2-dimethyl benzoxazinone], the “Liver weight / Body weight” value is “+6%”. The change in vivo at 50 mg/kg under setting [1] is -21%. The change in vivo at 50 mg/kg under setting [2] was determined as 0%. Further, under setting [3], the change in vivo at 50 mg/kg turned out to be 25%. Further, the change in vivo at 50 mg/kg (read-out: Phospho Lipids) worked out at 5%. Moreover, the change in vivo at 50 mg/kg (read-out: TG (Triglycerids) %) was -5%.

As for `CC1Oc2cc(C(=O)c3ccccc3)ccc2NC1=O` (centres unmarked) [MZ 115, 7-Benzoyl 2-methyl benzoxazinone], the “Liver weight / Body weight” value was “+9%”. Further, the change in vivo at 50 mg/kg under setting [1] was -32%. For the same compound, the change in vivo at 50 mg/kg under setting [2] was -5%. Moreover, the change in vivo at 50 mg/kg under setting [3] is 17%. The change in vivo at 50 mg/kg (read-out: Phospho Lipids) was -9%. Moreover, where the note is “read-out: TG (Triglycerids) %”, the change in vivo at 50 mg/kg was found to be 18%.

With `CC(C)OC(=O)C(C)(C)Oc1ccc(C(=O)c2ccc(Cl)cc2)cc1` [Fenofibrate, fenofibrate, reference compound], the “Liver weight / Body weight” value is on record as “+55%”. The change in vivo at 50 mg/kg under setting [1] was -30%. Further, under setting [2], the change in vivo at 50 mg/kg is -11%. For the same compound, the change in vivo at 50 mg/kg under setting [3] turned out to be 30%. The change in vivo at 50 mg/kg (read-out: Phospho Lipids) was determined as 18%. For the setting “read-out: TG (Triglycerids) %”, the change in vivo at 50 mg/kg is 24%.

With `CN1C(=O)C(C)(C)Oc2cc(C(=O)CCCN3CCN(c4ccc(F)cc4)CC3)ccc21` [MZ 153, 7[4(4p-fluorophenylpiperazino)butyryl]2,2,4-trimethyl benzoxazinone], the “Liver weight / Body weight” value is given as “+4%”. Also, the change in vivo at 50 mg/kg under setting [1] is -10%. Under setting [2], the change in vivo at 50 mg/kg is 25%. The change in vivo at 50 mg/kg under setting [3] turned out to be 45%. In addition, the change in vivo at 50 mg/kg (read-out: Phospho Lipids) worked out at 19%. For the same compound, for the setting “read-out: TG (Triglycerids) %”, the change in vivo at 50 mg/kg turned out to be 18%.

`CC1Oc2cc(C(=O)C=Cc3ccc(Cl)cc3)ccc2N(C)C1=O` (centres unmarked) [MZ 134, 7(4-Chlorocinnamoyl)2,4 dimethyl benzoxazinone]: the “Liver weight / Body weight” value is “+5%”. Besides, under setting [2], the change in vivo at 50 mg/kg is 5%. Besides, the change in vivo at 50 mg/kg under setting [3] was 10%. Moreover, the change in vivo at 50 mg/kg (read-out: Phospho Lipids) turned out to be 11%. Further, the change in vivo at 50 mg/kg (read-out: TG (Triglycerids) %) was -9%.

In the case of `CN1C(=O)C(C)(C)Oc2cc(C(=O)CCN3CCN(c4cccc(C(F)(F)F)c4)CC3)ccc21` [NM 8, 3(4-Metatrifluoromethylphenylpiperazino)7-propionyl 2,2,4 trimethyl benzoxazinone, hydrochloride], the “Liver weight / Body weight” value was -15%. Under setting [1], the change in vivo at 50 mg/kg turned out to be 8%. The change in vivo at 50 mg/kg under setting [2] was 10%. Also, the change in vivo at 50 mg/kg under setting [3] was 11%. The change in vivo at 50 mg/kg (read-out: Phospho Lipids) was 8%. Moreover, the change in vivo at 50 mg/kg (read-out: TG (Triglycerids) %) was 23%.

As for `CCCC(=O)c1ccc2c(c1)OC(C)(C)C(=O)N2CCC(=O)O` [NM 11, 7-Butyryl 4-β carboxyethyl 2,2-dimethyl benzoxazinone], the “Liver weight / Body weight” value turned out to be 0%. In addition, under setting [1], the change in vivo at 50 mg/kg was -37%. In addition, the change in vivo at 50 mg/kg under setting [2] was 7%. Under setting [3], the change in vivo at 50 mg/kg is 43%. Moreover, the change in vivo at 50 mg/kg (read-out: Phospho Lipids) stood at 16%. Also, where the note is “read-out: TG (Triglycerids) %”, the change in vivo at 50 mg/kg is -8%.

As for `CN1C(=O)C(C)(C)Oc2cc(C(=O)CCN3CCOCC3)ccc21` [NM 7, 7[3-morpholinopropionyl[2'2'4 trimethylbenzoxazinone, hydrochloride], the “Liver weight / Body weight” value is on record as -10%. Moreover, the change in vivo at 50 mg/kg under setting [1] is 2%. The change in vivo at 50 mg/kg under setting [2] was found to be 5%. The change in vivo at 50 mg/kg under setting [3] came out at 14%. Further, for the setting “read-out: Phospho Lipids”, the change in vivo at 50 mg/kg was 5%. For the same compound, the change in vivo at 50 mg/kg (read-out: TG (Triglycerids) %) worked out at 5%.

As to `CN1C(=O)C(C)(C)Oc2cc(C(=O)c3ccccc3)ccc21` [MZ 119, 7-Benzoyl 2,2,4 trimethyl benzoxazinone], the “Liver weight / Body weight” value was “+12%”. For the same compound, the change in vivo at 50 mg/kg under setting [1] was -30%. Further, the change in vivo at 50 mg/kg under setting [2] was -6%. Under setting [3], the change in vivo at 50 mg/kg is 21%. The change in vivo at 50 mg/kg (read-out: Phospho Lipids) was determined as 15%. Moreover, the change in vivo at 50 mg/kg (read-out: TG (Triglycerids) %) turned out to be 21%.

For `CN1C(=O)C(C)(C)Oc2cc(C(=O)c3ccc(Cl)cc3)ccc21` [MZ 125, 7-(4-Chlorobenzoyl)2,2,4-trimethyl benzoxazinone], the “Liver weight / Body weight” value was “+17%”. In addition, the change in vivo at 50 mg/kg under setting [1] is -25%. Moreover, under setting [2], the change in vivo at 50 mg/kg was 1%. Besides, under setting [3], the change in vivo at 50 mg/kg was determined as 18%. The change in vivo at 50 mg/kg (read-out: Phospho Lipids) is 15%. The change in vivo at 50 mg/kg (read-out: TG (Triglycerids) %) worked out at 19%.

For `CCCC(=O)c1ccc2c(c1)OC(C)(C)C(=O)N2C` [MZ 86, 7-Butyryl 2,2,4-trimethyl benzoxazinone], the “Liver weight / Body weight” value is reported as “+2%”. The change in vivo at 50 mg/kg under setting [1] is -38%. The change in vivo at 50 mg/kg under setting [2] turned out to be 18%. Also, the change in vivo at 50 mg/kg under setting [3] was found to be 44%. Further, the change in vivo at 50 mg/kg (read-out: Phospho Lipids) amounted to 0%. Besides, the change in vivo at 50 mg/kg (read-out: TG (Triglycerids) %) is -12%.
